Data as given in PMC10307035, “Antiviral activity of singlet oxygen-photogenerating perylene compounds against SARS-CoV-2: Interaction with the viral envelope and photodynamic virion inactivation” (Virus Research, 2023).

Assays:
[1] = system: feline infectious peritonitis virus (FIPV); type: cell-based, feline coronavirus (FCoV); conditions: 0–10 µM
Vero cells [2] = experiment: Light-induced cytotoxicity in Vero cells; type: cell-based, African Green Monkey; conditions: 0–10 µM, 465–480 nm 10 min, then 24 h in the dark
Description: To determine the light-induced cytotoxicity of the tested compounds, Vero cells were cultured for 24 h in 96-well plates to form a confluent monolayer, and then were treated with the tested compounds at concentrations of 0 to 10 µM. Then, the compound-treated cells were irradiated for 10 min at RT with LEDs (465–480 nm) having an approximate power density of 30 mW/cm^2 (device description in Fig. S7). As a negative control, compound-treated cells were incubated for 10 min in the dark at RT. Subsequently, both irradiated and non-irradiated cell monolayers were incubated in the dark at 37 °C for 24 h. Then, the cell culture medium was aspirated and the potential cytotoxicity of the tested perylene derivatives was determined based on cell viability using Cell Counting Kit-8 (Dojindo Molecular Technologies, Munich, Germany) according to the manufacturer's instructions.

CRFK cells = experiment: Cytotoxicity assay (Cell Counting Kit-8) in CRFK cells; type: cell-based, Felis catus; conditions: up to 10 µM
Description: (§1) To determine the overall cytotoxicity of the tested compounds, Vero cells were cultured for 24 h in 96-well plates to form a confluent monolayer, and then were treated with the tested compounds at concentrations of 2 and 10 µM. After 48 h of cultivation in the dark at 37 °C under 5% CO2, the cell culture medium was aspirated. The potential cytotoxicity of the tested perylene derivatives was determined based on cell viability using Cell Counting Kit-8 (Dojindo Molecular Technologies, Munich, Germany) according to the manufacturer's instructions. The cell viabilities of compound-treated Vero cells were compared with those of control DMSO-treated cells. We also used the above-described protocol to assess the cytotoxicity of the selected perylene antivirals, at concentrations ranging from 0 to 10 µM, in CaCo-2 and CRFK cells.

[3] = ROS generation rate / quantum yield, DPBF bleaching in methanol; type: physicochemical; conditions: in methanol, DPBF trap, 450–470 nm illumination, riboflavin as reference
Description: The ROS generation rate was estimated using the spectrophotometric method, based on the absorption changes of 1,3-diphenylisobenzofuran (DPBF, Sigma Aldrich, Germany) in methanol solution. Irreversible oxidation of DPBF by singlet oxygen results in peroxide formation, and DPBF bleaching. When light of 400–450 nm was used as actinic, DPBF bleaching occurred without any photosensitizer (PS) in solution. Therefore, to study photosensitized ROS generation, we used a white MCWHLP1 LED (Thorlabs, USA) with filters to limit the radiation to the 450–470 nm range (5.5 mW/cm^2).
Spectrophotometric measurements were performed in a Qpod 2e (Quantum Northwest, USA) thermostated cuvette holder at 25 °C with magnetic stirring (500 rpm). Absorption spectra were recorded using a MayaPro spectrophotometer (Ocean Optics, USA) and a stabilized white light source with a SLS201L tungsten lamp (Thorlabs, USA). Illumination was uniform over the entire volume of the cuvette, to prevent artifacts associated with the diffusion of non-reacted components into the illuminated volume of the cuvette. In this case, the rate of irreversible bleaching of DPBF (412 nm) was the same under both continuous and pulsed irradiation with equal total irradiation time. Illumination was performed in a pulsed mode (Fig. S5A), with 1 s of illumination followed by 5 s of dark adaptation, during which the absorption spectrum of the PS-DPBF solution was recorded. Data processing was performed as previously described ([Gvozdev et al., 2020]).

CaCo-2 cells [4] = experiment: Cytotoxicity assay (Cell Counting Kit-8) in CaCo-2 cells; type: cell-based, human; conditions: up to 10 µM
Description: as §1

[5] = system: SARS-CoV-2 (Wuhan strain); experiment: Viral titer inhibition assay, SARS-CoV-2 in CaCo-2 cells; type: cell-based; conditions: 0–10 µM
SARS-CoV-2 = experiment: Photodynamic inactivation of SARS-CoV-2 virions; type: cell-based; conditions: for antiviral effect under red light only: 100 µM; for antiviral effect under red light only / antiviral activity under red light only: dark room, 60 min at 37 °C; for antiviral activity after blue light irradiation of virus-compound mixture: 465–480 nm, 30 mW/cm^2, 10 min, then 60 min at 37 °C in the dark, plaque assay; for antiviral activity under red light only: up to 10 µM
Description: Virus in DMEM (titer of 10^5 PFU/mL) was mixed with the compounds (0–10 µM) in a microtiter plate, in triplicate, and irradiated for 10 min at RT with LEDs (465–480 nm) having an approximate power density of 30 mW/cm^2 (device description in supplement). As a negative control, virus was incubated for 10 min in the dark at RT. Subsequently, both irradiated and non-irradiated virus samples were incubated in the dark at 37 °C for 60 min. All manipulation with the samples before and after this incubation, i.e., mixing the compound with the virus, pipetting into a microtiter plate, etc., were performed in daylight. Viral titers were determined by plaque assays (performed also in daylight) and expressed as PFU/mL, as previously described ([Stefanik et al., 2021]). To eliminate the influence of daylight on compound activity, the whole experiment, including all manipulation with samples, was performed in a dark room under red light. The virus sample was mixed with the indicated compounds at concentrations from 0 to 10 μM or 100 μM, incubated for 60 min at 37 °C and virus viability was evaluated using a plaque assay (Fig. 9A).

[6] = ROS generation measurement with DMA trap in DMSO; type: physicochemical; conditions: for ROS generation, DMA trap, under blue light: 465–480 nm, 30 mW/cm^2, 10 min; for ROS generation, DMA trap, in the dark or with α-tocopherol: 10 min, dark or α-tocopherol (3 µg/mL)
Description: ROS generation was also estimated using 9,10-dimethylanthracene (DMA), another specific fluorescent singlet oxygen trap, which forms nonfluorescent 9,10-dimethylanthracene endoperoxide after ROS-mediated DMA oxidation. Compounds (0, 0.1, 1, and 10 µM) in DMSO were mixed with DMA (0.5 µM), and these solutions were irradiated for 10 min at room temperature (RT) with light-emitting diodes (LED, 465–480 nm) having approximate power density of 30 mW/cm^2 (device description in Fig. S7). DMA fluorescence intensity was measured at ex/em wavelengths of 370/432 nm in the presence or absence of α-tocopherol (3 µg/mL) as an antioxidant. Singlet oxygen generation was accompanied by a decreased fluorescence signal of the DMA probe ([Zeng et al., 2020]).

Vero cells [7] = experiment: Cytotoxicity assay (Cell Counting Kit-8) in Vero cells; type: cell-based, African Green Monkey; conditions: 10 µM, 48 h
Description: as §1

CaCo-2 cells [8] = experiment: Cellular stress marker expression by RT-qPCR in CaCo-2 cells; type: cell-based, human
Description: RT-qPCR was performed to evaluate changes in the gene expression of cellular stress markers. […] Previous publications report the primer sequences and numbers of the Universal Probe Library (UPL; Roche Life Sciences, Germany) used for detection of ATF3, CDKN1A (p21), CYP1A1, DDIT3, HMOX1, HSPA1B (HSP70), and HSPA5 mRNAs ([Procházková et al., 2018]; [Šimečková et al., 2020]). […] TaqMan™ Gene Expression Assays (Thermo Fisher Scientific, Waltham, MA, USA) were used to determine the levels of FGF21 (Hs00173927_m1), GADD45A (Hs00169255_m1), GDF15 (Hs00171132_m1), and SRXN1 (Hs00607800_m1). The amplification was run in a 10-µL reaction mixture containing 1 µL of sample, using Kapa Probe Fast One-Step (Kapa Biosystems Pty, Cape Town, South Africa) on a LightCycler® 480 System (Roche Diagnostics, Czech Republic) using the previously published sequence ([Procházková et al., 2018]). Reference gene qPCR assays (Generi Biotech, Hradec Králové, Czech Republic) were used for the following housekeeping genes: human β2-Microglobulin (B2M; #3030), hydroxymethylbilane synthase (HMBS; #3032), and RNA polymerase II subunit A (POLR2A; #3035). We used an average of three reference gene Cp values to calculate the change in gene expression using the comparative threshold cycle method ([Schmittgen and Livak, 2008]).

Row | Compound | replication of FIPV in CRFK cells [1] | effect of blue light irradiation on cytotoxicity (Vero cells [2]) | tolerability by CRFK cells (CRFK cells) | φROS (ROS generation quantum yield) [3] | tolerability by CaCo-2 cells (CaCo-2 cells [4]) | anti-SARS-CoV-2 activity in CaCo-2 cells [5] | antiviral effect under red light only (SARS-CoV-2) | antiviral activity after blue light irradiation of virus-compound mixture (SARS-CoV-2) | antiviral activity under red light only (SARS-CoV-2) | ROS generation, DMA trap, under blue light [6] | ROS generation, DMA trap, in the dark or with α-tocopherol [6] | cell viability (in words) (Vero cells [7]) | increase of CYP1A1 mRNA level (CaCo-2 cells [8]; CaCo-2 cells, 10 nM) | expression of HSPA5, DDIT3, HSPA1B (HSP70), CDKN1A (p21), GADD45A (CaCo-2 cells [8]; CaCo-2 cells, 5, 24 and 48 h)
1 | O=c1[nH]c(=O)n([C@H]2C[C@H](O)[C@@H](CO)O2)cc1C#Cc1ccc2c3cccc4cccc(c5cccc1c52)c43 [Compound 2, 5-(perylen-3-yl)ethynyl-2′-deoxy-uridine] | potently suppressed the replication | dramatically increased | well-tolerated | 20.9 ± 0.2% | well-tolerated | sub-micromolar | no antiviral effect | low-nanomolar | completely disappeared | significant bleaching | no/limited bleaching |  |  | 
2 | CCCCNC(=O)Cn1cc(C#Cc2ccc3c4cccc5cccc(c6cccc2c63)c54)c(=O)n(COC(=O)C(C)(C)C)c1=O [Compound 8] |  | no effect |  | 17.6 ± 0.4% |  |  |  | significant increase of antiviral activity |  |  |  | moderately decreased cell viability |  | 
3 | O=C(NCCCCO)c1ccc(-c2ccc3c4cccc5cccc(c6cccc2c63)c54)s1 [Compound 17] | potently suppressed the replication | dramatically increased | well-tolerated | 59.0 ± 2.4% | well-tolerated | sub-micromolar | no antiviral effect | low-nanomolar | completely disappeared | significant bleaching | no/limited bleaching |  |  | 
4 | Clc1cc2c(cc1Cl)Oc1cc(Cl)c(Cl)cc1O2 [TCDD, reference compound] |  |  |  |  |  |  |  |  |  |  |  |  | up to 50 fold | 
5 | C/C=C(/C)C(=O)O[C@H]1C(C)=C2[C@H]([C@@H]1OC(=O)CCCCCCC)[C@@](C)(OC(C)=O)C[C@H](OC(=O)CCC)[C@@]1(O)[C@H]2OC(=O)[C@@]1(C)O [thapsigargin, reference compound] |  |  |  |  |  |  |  |  |  |  |  |  |  | increased
